What was measured:
[1] = Metabolic Stability in dog liver microsome assessed as half life at […] measured upto 60 mins by HPLC-MS/MS analysis; assay type: ADME, Canis lupus familiaris; settings: liver microsomes
[2] = Metabolic Stability in cynomolgus monkey liver microsome assessed as half life at […] measured upto 60 mins by HPLC-MS/MS analysis; assay type: ADME, Macaca fascicularis; settings: liver microsomes
[3] = Metabolic Stability in dog liver microsome assessed as intrinsic clearance at […] measured upto 60 mins by HPLC-MS/MS analysis; assay type: ADME, Canis lupus familiaris; settings: microsomes, 1 h
[4] = Metabolic Stability in cynomolgus monkey liver microsome assessed as intrinsic clearance at […] measured upto 60 mins by HPLC-MS/MS analysis; assay type: ADME, Macaca fascicularis; settings: microsomes, 1 h
[5] = biological target: T1, Nuclear receptor ROR-alpha (Homo sapiens, UniProt P35398); assay: Agonist activity at human Gal4-fused RORalpha expressed in HEK293T cells assessed as luciferase activity incubated for 16 to 20 hrs by Luciferase reporter gene assay; assay type: cell-based
T1 sequence (P35398 whole entry): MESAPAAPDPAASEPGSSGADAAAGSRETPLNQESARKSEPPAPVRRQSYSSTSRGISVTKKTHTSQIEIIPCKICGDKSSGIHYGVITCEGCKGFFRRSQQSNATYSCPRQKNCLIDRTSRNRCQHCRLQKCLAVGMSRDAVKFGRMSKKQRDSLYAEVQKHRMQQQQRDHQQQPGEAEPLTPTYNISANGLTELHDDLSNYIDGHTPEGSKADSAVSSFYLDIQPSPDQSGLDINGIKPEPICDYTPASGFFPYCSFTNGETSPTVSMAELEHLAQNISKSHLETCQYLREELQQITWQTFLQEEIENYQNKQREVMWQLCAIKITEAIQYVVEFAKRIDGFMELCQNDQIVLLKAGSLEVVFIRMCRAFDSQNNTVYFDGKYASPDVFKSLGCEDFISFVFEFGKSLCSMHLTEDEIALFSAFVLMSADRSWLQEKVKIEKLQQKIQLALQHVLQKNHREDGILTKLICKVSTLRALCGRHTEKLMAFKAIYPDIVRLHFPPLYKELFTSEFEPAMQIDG

[6] = AUC(infinity) in CD-1 mouse at 1 mg/kg,iv administration measured after 24 hrs by LC-MS/MS analysis; assay type: ADME, organism-based; design: time 24 hrs, dose 1 mg/kg, route iv; settings: in vivo
[7] = Cmax in CD-1 mouse at 5 mg/kg,po administration measured after 24 hrs by LC-MS/MS analysis; assay type: ADME, organism-based; design: dose 5 mg/kg, time 24 hrs, route po; settings: in vivo
[8] = AUC(infinity) in CD-1 mouse at 5 mg/kg,po administration measured after 24 hrs by LC-MS/MS analysis; assay type: ADME, organism-based; design: dose 5 mg/kg, time 24 hrs, route po; settings: in vivo
[9] = Clearance in rat at 1 mg/kg,iv administration measured after 24 hrs by LC-MS/MS analysis; assay type: ADME, organism-based; settings: in vivo
[10] = Volume of distribution at steady state in rat at 1 mg/kg,iv administration measured after 24 hrs by LC-MS/MS analysis; assay type: ADME, organism-based; settings: in vivo, read-out: Vdss
[11] = Half life in rat at 1 mg/kg,iv administration measured after 24 hrs by LC-MS/MS analysis; assay type: ADME, organism-based; settings: in vivo
[12] = Cmax in rat at 5 mg/kg,po administration measured after 24 hrs by LC-MS/MS analysis; assay type: ADME, organism-based; design: time 24 hrs, dose 5 mg/kg, route po; settings: in vivo
[13] = Clearance in dog at 1 mg/kg,iv administration measured after 24 hrs by LC-MS/MS analysis; assay type: ADME, organism-based, Canis lupus familiaris; settings: in vivo
[14] = Volume of distribution at steady state in dog at 1 mg/kg,iv administration measured after 24 hrs by LC-MS/MS analysis; assay type: ADME, organism-based, Canis lupus familiaris; settings: in vivo, read-out: Vdss
[15] = Half life in dog at 2 mg/kg,po administration measured after 24 hrs by LC-MS/MS analysis; assay type: ADME, organism-based, Canis lupus familiaris; settings: in vivo
[16] = biological target: Voltage-gated inwardly rectifying potassium channel KCNH2 (Homo sapiens, UniProt Q12809); assay: Inhibition of hERG potassium channel by patch clamp assay; assay type: toxicity
B16-F10 [17] = assay: Antitumor activity against mouse B16-F10 cells xenografted in C57BL/6 mouse assessed as tumor growth inhibition at 25 mg/kg,ip administrated on day 7 for 8 days relative to control; assay type: functional; settings: B16-F10, 192 h, time 8 day, read-out: TGI
B16-F10 [18] = assay: Antitumor activity against mouse B16-F10 cells xenografted in C57BL/6 mouse assessed as tumor growth inhibition at 50 mg/kg,ip administrated on day 7 for 8 days relative to control; assay type: functional; settings: B16-F10, 192 h, time 8 day, read-out: TGI
B16-F10 [19] = assay: Antitumor activity against mouse B16-F10 cells xenografted in C57BL/6 mouse assessed as tumor growth inhibition at 100 mg/kg,ip administrated on day 7 for 8 days relative to control; assay type: functional; settings: B16-F10, 192 h, time 8 day, read-out: TGI
[20] = Antitumor activity against mouse Lung adenocarcinoma cell line xenografted in C57BL/6 mouse assessed as tumor growth inhibition at 50 mg/kg,ip administrated on day 7 for 12 days relative to control; assay type: functional; settings: 288 h, time 12 day, read-out: TGI

Voltage-gated inwardly rectifying potassium channel KCNH2, sequence (Q12809 whole entry): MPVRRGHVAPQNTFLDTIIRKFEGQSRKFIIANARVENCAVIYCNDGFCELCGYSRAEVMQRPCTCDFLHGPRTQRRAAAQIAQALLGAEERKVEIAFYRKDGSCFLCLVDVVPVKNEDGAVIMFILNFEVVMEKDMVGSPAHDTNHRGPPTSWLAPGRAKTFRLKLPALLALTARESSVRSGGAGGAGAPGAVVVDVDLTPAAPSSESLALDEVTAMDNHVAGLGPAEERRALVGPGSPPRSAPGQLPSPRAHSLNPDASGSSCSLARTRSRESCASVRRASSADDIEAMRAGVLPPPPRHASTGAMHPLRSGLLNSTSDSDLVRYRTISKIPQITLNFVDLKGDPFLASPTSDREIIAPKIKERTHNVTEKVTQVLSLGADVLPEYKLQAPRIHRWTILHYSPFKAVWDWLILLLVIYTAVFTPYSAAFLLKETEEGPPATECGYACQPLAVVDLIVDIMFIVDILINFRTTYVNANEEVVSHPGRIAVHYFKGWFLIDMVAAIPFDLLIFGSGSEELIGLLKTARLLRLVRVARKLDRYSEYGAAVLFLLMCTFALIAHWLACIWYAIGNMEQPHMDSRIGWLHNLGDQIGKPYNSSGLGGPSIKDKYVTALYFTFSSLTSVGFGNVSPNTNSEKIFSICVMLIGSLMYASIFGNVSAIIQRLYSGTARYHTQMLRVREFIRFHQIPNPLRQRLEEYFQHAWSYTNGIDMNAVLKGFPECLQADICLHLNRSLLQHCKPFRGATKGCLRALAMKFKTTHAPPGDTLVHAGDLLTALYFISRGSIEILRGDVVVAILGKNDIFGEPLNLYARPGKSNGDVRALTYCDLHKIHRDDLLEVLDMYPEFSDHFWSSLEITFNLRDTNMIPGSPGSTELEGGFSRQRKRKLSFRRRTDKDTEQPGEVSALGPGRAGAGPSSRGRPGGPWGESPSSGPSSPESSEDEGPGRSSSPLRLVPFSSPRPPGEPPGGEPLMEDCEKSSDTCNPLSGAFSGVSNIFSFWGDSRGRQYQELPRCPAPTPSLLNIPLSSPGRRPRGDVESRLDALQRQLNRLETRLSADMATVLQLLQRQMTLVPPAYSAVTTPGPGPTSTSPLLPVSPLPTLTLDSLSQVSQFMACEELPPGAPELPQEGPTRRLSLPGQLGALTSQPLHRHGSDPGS

## CCS(=O)(=O)c1ccc(CC(=O)Nc2cc(Cl)c(-c3ccc(OC(C)C)c(C#N)c3)c(Cl)c2)cc1
[1]
  half-life: > 2.42 h
[2]
  half-life: 0.518 h
[3]
  CLH: < 13.8 µL/min/mg
[4]
  CLH: 60.2 µL/min/mg
[5]
  EC50: > 10 µM
[6]
  AUC: 4621.9 ng·h/mL
[7]
  Cmax: 1810 ng/mL
[8]
  AUC(0-inf): 20600 ng·h/mL
[9]
  clearance: 3.2 mL/min/kg
[10]
  Vd: 2.8 L/kg
[11]
  half-life: 11.2 h
[12]
  Cmax: 503 ng/mL
[13]
  clearance: 0.64 mL/min/kg
[14]
  Vd: 2.5 L/kg
[15]
  half-life: 59.1 h
[16]
  IC50: > 10 µM
B16-F10 [17]
  inhibition in vivo at 25 mg/kg: 51.6%
B16-F10 [18]
  inhibition in vivo at 50 mg/kg: 54.7%
B16-F10 [19]
  inhibition in vivo at 100 mg/kg: 77.9%
[20]
  inhibition in vivo at 50 mg/kg: 75.6%
